Each structure is given as a SMILES string.

The values that follow come from EP0700399B1, “36-DERIVATIVES OF RIFAMYCINS AND THEIR USE AS ANTIMICROBIAL AGENTS” (GRUPPO LEPETIT S.P.A., priority 1993, dated 1994).

Test in all cases: MIC by broth microdilution
On the technique in general: In broth dilution the organism is exposed to a series of concentrations in liquid medium.

The test system of one experiment is Strept. pneumoniae. It is filed as cell-based. The conditions noted are these: Streptococcus pneumoniae; internal code L44; read-out: MIC of the compounds.
Experiment [1] relates to Pseudomonas aerug. ATCC10145. It is filed as cell-based, Pseudomonas aeruginosa. Conditions: Pseudomonas, ATCC10145; internal code L4; read-out: MIC of the compounds.
Experiment [2] has as its system Staph. epidermidis ATCC 12228. Format: cell-based. Conditions: Staphylococcus epidermidis, ATCC12228; internal code L147; read-out: MIC of the compounds.
The test system of the next experiment is Esch. coli K12 wild type. It is filed as cell-based. The conditions noted are these: Escherichia coli, K12WILDTYPE, internal code G210, read-out: MIC of the compounds.
In the next experiment the test system is Staph. aureus rifa-r^(2). Format: cell-based. Conditions: Staphylococcus aureus, read-out: MIC of the compounds.
In experiment [3] the test system is Esch. coli K12 rifa-r^(1). Format: cell-based, Escherichia coli. Conditions: Escherichia coli, read-out: MIC of the compounds.
For experiment [4], the system named is Propionibact. acnes ATCC 6919. Format: cell-based, Propionibacterium acnes. Conditions: Cutibacterium acnes, ATCC6919; internal code L1014; anaerobic, 48 hours; read-out: MIC of the compounds.
Experiment [5] deals with Haemoph. influenzae ATCC 19418. It is filed as cell-based, Haemophilus influenzae. The conditions noted are these: Haemophilus influenzae, ATCC19418; internal code L970; 5% carbon dioxide, 48 hours; read-out: MIC of the compounds.
Experiment [6] concerns Enterococc. faecalis ATCC 7080. It is filed as cell-based, Enterococcus faecalis. Conditions: Enterococcus faecalis, ATCC7080; internal code L149; read-out: MIC of the compounds.
For the next experiment, the system named is Streptococcus pyogenes. Format: cell-based. The conditions noted are these: Streptococcus pyogenes; internal code L49; read-out: MIC of the compounds.
The subject of the next experiment is Escherichia coli. Format: cell-based. The conditions noted are these: Escherichia coli; internal code L47; read-out: MIC of the compounds.
For another experiment, the system named is Staphylococcus aureus. It is filed as cell-based. Conditions: Staphylococcus aureus; internal code L165; read-out: MIC of the compounds.
For a further experiment, the system named is Neisseria gonorrhoeae. It is filed as cell-based. Conditions: Neisseria gonorrhoeae; internal code L997; 5% carbon dioxide, 48 hours; read-out: MIC of the compounds.
In experiment [7] the test system is Staph. haemolyticus rifa-r^(2). Format: cell-based. Conditions: Staphylococcus haemolyticus, read-out: MIC of the compounds.
In experiment [8] the test system is Esch. coli K12 hyperpermeable. It is filed as cell-based, Escherichia coli. Conditions: Escherichia coli, read-out: MIC of the compounds.
For experiment [9], the system named is Proteus vulgaris ATCC 881. It is filed as cell-based. Conditions: Proteus vulgaris, ATCC881; internal code L79; read-out: MIC of the compounds.
In experiment [10] the test system is Bacteroides fragilis ATCC 23745. It is filed as cell-based. The conditions noted are these: Bacteroides fragilis, ATCC23745; internal code L1010; anaerobic, 48 hours; read-out: MIC of the compounds.

In the case of `CCN(CC)CC(=O)O[C@H]1[C@H](C)[C@H](O)[C@H](C)[C@@H](O)[C@@H](C)/C=C/C=C(/C)C(=O)NC2=CC(=O)c3c(c(O)c(C)c4c3C(=O)[C@@](C)(O/C=C/[C@H](OC)[C@H]1C)O4)C2=O` [Compound C12, 36-Diethylaminorifamycin S], the MIC with Strept. pneumoniae was 0.03 µg/mL; in experiment [1], 32 µg/mL; in [2], 8 ng/mL; in the experiment with Esch. coli K12 wild type, 64 µg/mL; in the experiment on Staph. aureus rifa-r^(2) it was 32 µg/mL; in [3], above 128 µg/mL. The MIC in experiment [4] stood at 0.5 µg/mL; in [5], 1 µg/mL; in experiment [6], 0.25 µg/mL; with Streptococcus pyogenes, 0.06 µg/mL; with Escherichia coli, 32 µg/mL; with Staphylococcus aureus it was 0.03 µg/mL. Moreover, the MIC in the experiment on Neisseria gonorrhoeae is 1 µg/mL; in [7] it was 64 µg/mL; in [8], at most 0.13 µg/mL; in experiment [9] it was 8 µg/mL; in [10] it was 2 µg/mL.
